According to patent US11111253B2, “6-aryl-7-substituted-3-(1H-pyrazol-5-yl)-7H-[1,2,4]triazolo[3,4-b][1,3,4]thiadiazines as inhibitors of the STAT3 pathway with anti-proliferative activity” (UNIVERSITY OF PITTSBURGH—OF THE COMMONWEALTH SYSTEM OF …, priority 2015, dated 2021):

How the values were obtained:
Assay type in all cases: cell-based
STAT1 = STAT1 assay (selectivity); details: Table 4
Protocol: (§1) Compound samples (in 3-5 mg quantities) were evaluated in a variety of assays. All compound submissions were fully characterized (1H, 13C, IR, FIRMS), satisfied purity criteria (≥95% LC/MC, ELS).

STAT3 = assay: HCS STAT3 assay; details: Table 4
Protocol: as §1

Cal33 cells = assay: Cal33 growth inhibition; details: Table 5; * average of 2 experiments
Protocol: as §1

FADU = assay: Growth inhibition FADU; details: Table 6; average of 2 experiments
OSC19 = assay: Growth inhibition OSC19; details: Table 6; average of 2 experiments
686LN = assay: Growth inhibition 686LN; details: Table 6; average of 2 experiments

Compound “1-(3-(6-(4-Methoxyphenyl)-7-methyl-7H-[1,2,4]triazolo[3,4-b][1,3,4]thiadiazin-3-yl)-5-phenyl-1H-pyrazol-1-yl)ethanone [8A]” has an IC50 (STAT1) of 40.6 ± 7.5 µM.

With “1-(5-(6-(4-methoxyphenyl)-7-methyl-7H-[1,2,4]triazolo[3,4-b][1,3,4]thiadiazin-3-yl)-3-phenyl-1H-pyrazol-1-yl)ethanone [8B]” the IC50 (STAT3) was 3.7 µM and the IC50 (STAT1) was greater than 50 µM.

`COc1ccc(C2=Nn3c(nnc3-c3cc(-c4ccc(Cl)cc4)n[nH]3)S[C@@H]2C)cc1` (single isomer, unassigned; ent-1) [24 (ent-1)] was tested, and the GI50 (Cal33 cells) was 2.7 µM.

`CC1Sc2nnc(-c3cc(-c4ccccc4)n[nH]3)n2N=C1c1ccccc1` (stereo not shown) [compound 21] showed a GI50 (FADU) of 32.7 µM, a GI50 (OSC19) of 31.3 µM and a GI50 (686LN) of 32.2 µM.
